Structures are written as SMILES. Counter-ions that a name gives are not always drawn. Some results are limits rather than exact numbers.

The source of these data is patent publication US12187742B2 (XRAD Therapeutics, Inc., priority 2018, dated 2025).

Chain of ATM (Q13315 whole entry): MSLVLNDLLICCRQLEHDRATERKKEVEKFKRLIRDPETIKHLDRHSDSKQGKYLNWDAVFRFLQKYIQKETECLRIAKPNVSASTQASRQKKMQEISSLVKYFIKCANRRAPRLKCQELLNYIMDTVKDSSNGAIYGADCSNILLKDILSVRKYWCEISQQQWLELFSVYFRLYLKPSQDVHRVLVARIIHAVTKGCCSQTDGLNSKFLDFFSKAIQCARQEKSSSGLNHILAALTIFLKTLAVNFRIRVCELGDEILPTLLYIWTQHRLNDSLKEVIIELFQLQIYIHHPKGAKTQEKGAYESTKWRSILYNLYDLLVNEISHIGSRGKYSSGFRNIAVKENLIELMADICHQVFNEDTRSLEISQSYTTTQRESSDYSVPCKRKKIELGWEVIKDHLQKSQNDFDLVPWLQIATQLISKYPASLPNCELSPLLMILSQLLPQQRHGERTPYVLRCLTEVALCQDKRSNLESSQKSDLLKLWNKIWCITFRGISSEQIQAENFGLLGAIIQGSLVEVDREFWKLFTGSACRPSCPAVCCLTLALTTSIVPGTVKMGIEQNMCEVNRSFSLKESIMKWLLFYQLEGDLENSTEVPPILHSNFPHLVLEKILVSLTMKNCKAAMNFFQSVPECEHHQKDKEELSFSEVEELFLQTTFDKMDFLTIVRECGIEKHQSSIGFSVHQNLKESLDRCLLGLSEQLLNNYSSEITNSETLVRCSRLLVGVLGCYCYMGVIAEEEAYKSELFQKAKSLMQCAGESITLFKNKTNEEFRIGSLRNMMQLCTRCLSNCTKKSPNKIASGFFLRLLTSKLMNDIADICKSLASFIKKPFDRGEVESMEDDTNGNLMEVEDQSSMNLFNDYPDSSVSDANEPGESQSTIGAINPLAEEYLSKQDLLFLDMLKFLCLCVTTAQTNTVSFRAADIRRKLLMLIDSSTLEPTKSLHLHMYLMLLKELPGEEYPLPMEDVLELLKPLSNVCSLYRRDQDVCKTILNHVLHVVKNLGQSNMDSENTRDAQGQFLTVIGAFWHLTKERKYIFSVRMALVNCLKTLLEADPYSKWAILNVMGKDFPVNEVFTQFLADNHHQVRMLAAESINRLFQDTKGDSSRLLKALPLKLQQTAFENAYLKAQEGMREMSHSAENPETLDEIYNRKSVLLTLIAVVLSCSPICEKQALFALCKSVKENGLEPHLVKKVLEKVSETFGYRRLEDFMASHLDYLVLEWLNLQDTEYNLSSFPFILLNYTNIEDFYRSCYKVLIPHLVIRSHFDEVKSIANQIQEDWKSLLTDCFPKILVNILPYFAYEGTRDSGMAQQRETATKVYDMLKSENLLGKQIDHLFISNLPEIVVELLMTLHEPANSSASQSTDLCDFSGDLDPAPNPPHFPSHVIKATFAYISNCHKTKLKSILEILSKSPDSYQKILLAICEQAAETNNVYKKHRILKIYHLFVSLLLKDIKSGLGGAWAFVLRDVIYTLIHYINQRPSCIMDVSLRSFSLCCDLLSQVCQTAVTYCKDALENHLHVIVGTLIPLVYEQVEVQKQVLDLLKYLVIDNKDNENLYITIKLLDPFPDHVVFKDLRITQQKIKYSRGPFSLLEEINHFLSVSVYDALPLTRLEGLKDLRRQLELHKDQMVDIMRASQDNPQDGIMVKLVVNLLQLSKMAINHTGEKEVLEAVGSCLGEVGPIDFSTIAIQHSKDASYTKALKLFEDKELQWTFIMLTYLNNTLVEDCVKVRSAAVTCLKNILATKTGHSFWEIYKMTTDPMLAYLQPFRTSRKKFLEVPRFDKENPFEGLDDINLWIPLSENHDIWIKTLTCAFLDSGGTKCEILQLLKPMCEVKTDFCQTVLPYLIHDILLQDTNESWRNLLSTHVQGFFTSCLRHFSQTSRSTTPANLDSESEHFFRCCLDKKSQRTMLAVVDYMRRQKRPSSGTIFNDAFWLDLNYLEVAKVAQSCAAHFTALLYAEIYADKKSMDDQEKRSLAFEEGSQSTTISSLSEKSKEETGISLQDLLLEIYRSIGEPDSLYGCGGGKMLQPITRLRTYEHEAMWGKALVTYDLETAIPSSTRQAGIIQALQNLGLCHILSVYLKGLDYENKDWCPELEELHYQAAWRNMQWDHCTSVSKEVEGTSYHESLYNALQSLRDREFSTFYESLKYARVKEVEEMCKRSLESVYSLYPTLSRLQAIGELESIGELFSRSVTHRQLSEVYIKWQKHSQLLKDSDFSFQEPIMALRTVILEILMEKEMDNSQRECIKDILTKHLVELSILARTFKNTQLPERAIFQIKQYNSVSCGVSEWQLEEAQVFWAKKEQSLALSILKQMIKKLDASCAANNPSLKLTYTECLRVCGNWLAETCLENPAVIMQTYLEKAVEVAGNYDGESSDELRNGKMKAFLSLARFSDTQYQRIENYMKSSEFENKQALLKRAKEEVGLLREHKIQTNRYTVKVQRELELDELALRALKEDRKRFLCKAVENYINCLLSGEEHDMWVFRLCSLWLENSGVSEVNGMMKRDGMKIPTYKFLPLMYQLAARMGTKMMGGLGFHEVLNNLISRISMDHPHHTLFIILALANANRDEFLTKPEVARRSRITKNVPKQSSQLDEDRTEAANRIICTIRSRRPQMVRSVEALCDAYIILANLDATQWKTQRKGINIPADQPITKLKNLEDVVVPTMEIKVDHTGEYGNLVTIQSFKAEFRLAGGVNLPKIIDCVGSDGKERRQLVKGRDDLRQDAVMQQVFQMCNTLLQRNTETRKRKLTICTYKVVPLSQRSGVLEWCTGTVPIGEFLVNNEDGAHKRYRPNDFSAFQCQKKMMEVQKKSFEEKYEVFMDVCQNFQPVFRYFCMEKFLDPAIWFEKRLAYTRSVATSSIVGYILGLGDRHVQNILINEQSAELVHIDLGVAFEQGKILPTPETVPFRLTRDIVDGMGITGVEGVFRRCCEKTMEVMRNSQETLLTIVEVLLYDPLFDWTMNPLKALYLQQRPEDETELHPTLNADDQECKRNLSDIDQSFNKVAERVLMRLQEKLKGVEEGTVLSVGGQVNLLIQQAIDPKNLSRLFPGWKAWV

The target in one assay is ATM (Homo sapiens (Human), UniProt Q13315). The experiment in a line: ATM in Cell Western Assay (pKAP1 in etoposide-treated MCF-7 cells). Type of assay: cell-based. The conditions noted are these: MCF-7 cells, etoposide 100 μM, 1 hr, pKAP1 readout. The essentials:
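Cells received compounds in a 10-dose, 3-fold series from a 1 μM final top concentration, then 100 μM etoposide, for 1 hr at 37° C. They were then fixed with paraformaldehyde and permeabilized with 0.1% Triton X-100. After immunostaining, plates were scanned on an infrared imager.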
For `CN1C(=O)C2(CCC2)c2c1cnc1ccc(-c3cnc(OCCCN4CCCCC4)c(NS(=O)(=O)CF)c3)cc21` [Example 301, 1-Fluoro-N-(5-(3′-methyl-2′-oxo-2′,3′-dihydrospiro[cyclobutane-1,1′-pyrrolo[2,3-c]quinolin]-8-yl)-2-(3-(piperidin-1-yl)propoxy)pyridin-3-yl) methanesulfonamide], the IC50 was in the range of 0.001 to 0.1 µM. Same read-out and setting: in the case of `CN1C(=O)C2(CCC2)c2c1cnc1cc(F)c(-c3cnc(N4CC(N(C)C)C4)c(NS(=O)(=O)c4ccccc4F)c3)cc21` [Example 322, N-(2-(3-(Dimethylamino)azetidin-1-yl)-5-(7′-fluoro-3′-methyl-2′-oxo-2′,3′-dihydrospiro[cyclobulane-1,1′-pyrrolo[2,3-c]quinolin]-8′-yl)pyridin-3-yl)-2-fluorobenzenesulfonamide hydrochloride] it was 0.001 to 0.1 µM. On the same count and under the same terms, in the case of `COc1ncc(-c2ccc3ncc4c(c3c2)C2(CC2)C(=O)N4C)cc1NS(=O)(=O)c1cccc(C(C)O)c1` (stereo not drawn) [Example 18, 3-(1-Hydroxyethyl)-N-(2-methoxy-5-(3′-methyl-2′-oxo-2′,3′-dihydrospiro[cyclopropane-1,1′-pyrrolo[2,3-c]quinolin]-8′-yl)pyridin-3-yl)benzenesulfonamide] it was 0.001 to 0.1 µM; in that of `Cc1ccc(S(=O)(=O)Nc2cc(-c3ccc4ncc5c(c4c3)C3(CCC3)C(=O)N5C)cnc2OCCCN2C(C)CCCC2C)cn1` (stereo not drawn) [Example 210, N-(2-(3-(2,6-Dimethylpiperidin-1-yl)propoxy)-5-(3′-methyl-2′-oxo-2′,3′-dihydrospiro[cyclobutane-1,1′-pyrrolo[2,3-c]quinolin]-8′-yl)pyridin-3-yl)-6-methylpyridine-3-sulfonamide], 0.001 to 0.1 µM.

Take `Cc1oncc1S(=O)(=O)Nc1cc(-c2ccc3ncc4c(c3c2)C2(CC2)C(=O)N4C)cnc1OCCCN(C)C` [Example 99, N-(2-(3-(Dimethylamino)propoxy)-5-(3′-methyl-2′-oxo-2′,3′-dihydrospiro [cyclopropane-1,1′-pyrrolo[2,3-c]quinolin]-8′-yl)pyridin-3-yl)-5-methylisoxazole-4-sulfonamide]: the IC50 is > 0.1 µM.

`CN1CC=C(c2ncc(-c3ccc4ncc5c(c4c3)C3(CCC3)C(=O)N5C)cc2NS(C)(=O)=O)CC1` [Example 276, N-(1′-Methyl-5-(3′-methyl-2-oxo-2′,3′-dihydrospiro[cyclobutane-1,1′-pyrrolo[2,3-c]quinolin]-8′-yl)-1′,2′,3′,6′-tetrahydro-[2,4′-bipyridin]-3-yl)methanesulfonamide]: the IC50 lay in the range of 0.001 to 0.1 µM. On the same count and under the same terms, in the case of `CN(C)CCCOc1ncc(-c2ccc3ncc4c(c3c2)C2(CCC2)C(=O)N4C)cc1NS(=O)(=O)N1CCCc2ccccc21` [Example 139] it was 0.001 to 0.1 µM; in that of `Cc1cc2ncc3c(c2cc1-c1cnc(N2CC(N(C)C)C2)c(NS(C)(=O)=O)c1)C1(CCC1)C(=O)N3C` [Example 335, N-(5-(3′-,7′-Dimethyl-2′-oxo-2′,3′-dihydrospiro[cyclobutane-1,1′-pyrrolo[2,3-c]quinolin]-8′-yl)-2-(3-(dimethylamino)azetidin-1-yl)pyridin-3-yl)methanesulfonamide], 0.001 to 0.1 µM. As to `CN(C)CCCOc1ncc(-c2ccc3ncc4c(c3c2)N(C)C2(CC2)C(=O)N4)cc1NS(=O)(=O)c1ccccc1` [Example 87, N-(2-(3-(Dimethylamino)propoxy)-5-(1′-methyl-3′-oxo-3′-,4′-dihydro-1′H-spiro[cyclopropane-1,2′-pyrazino[2,3-c]quinolin]-9′-yl)pyridin-3-yl) benzenesulfonamide], the half-maximal inhibitory concentration (IC50) is > 0.1 µM.

Staying with this assay, now noted: pKAP1 in etoposide-treated MCF-7 cells.
Turning to `CCC(C)N1CC2(C1)C(=O)N(C)c1cnc3cc(F)c(-c4cnc(OCCNC(C)C)c(NS(C)(=O)=O)c4)cc3c12` (stereo not drawn) [Example 487, N-(5-(1-(sec-Butyl)-7′-fluoro-3′-methyl-2′-oxo-2′,3′-dihydrospiro[azetidine-3,1′-pyrrolo[2,3-c]quinolin]-8′-yl)-2-(2-(isopropylamino)ethoxy)pyridin-3-yl)methanesulfonamide], the IC50 was 0.001 to 0.1 µM.

`CO[C@H]1C[C@@]2(C1)C(=O)N(C)c1cnc3cc(F)c(-c4cnc(OCCNC(C)C)c(NS(C)(=O)=O)c4)cc3c12` [Example 386]: the IC50 is 0.001 to 0.1 µM.

Take `CNC(=O)c1cc(-c2ccc3ncc4c(c3c2)C2(CCC2)C(=O)N4C)cc(NS(C)(=O)=O)c1OCCCN(C)C` [Example 565, 2-(3-(Dimethylamino)propoxy)-N-methyl-5-(3′-methyl-2′-oxo-2′,3′-dihydrospiro[cyclobutane-1,1′-pyrrolo[2,3-c]quinolin]-8′-yl)-3-(methylsulfonamido)benzamide]: the half-maximal inhibitory concentration (IC50) was > 0.1 µM. On the same count and under the same terms, in the case of `COCCN1CC2(C1)C(=O)N(C)c1cnc3cc(F)c(-c4cnc(OCCNC(C)C)c(NS(C)(=O)=O)c4)cc3c12` [Example 507, N-(5-(7′-Fluoro-1-(2-methoxyethyl)-3 methyl-2′-oxo-2′,3′-dihydrospiro[azetidine-3,1′-pyrrolo[2,3-c]quinolin]-8′-yl)-2-(2-(isopropylamino)ethoxy)pyridin-3-yl)methanesulfonamide] it was 0.001 to 0.1 µM; in that of `COc1ccc(N2CC3(C2)C(=O)N(C)c2cnc4cc(F)c(-c5cnc(OCCNC(C)C)c(NS(C)(=O)=O)c5)cc4c23)cc1OC` [Example 546, N-(5-(1-(3,4-Dimethoxyphenyl)-7′-fluoro-3′-methyl-2′-oxo-2′,3′-dihydrospiro[azetidine-3,1′-pyrrolo[2,3-c]quinolin]-8′-yl)-2-(2-(isopropylamino)ethoxy)pyridin-3-yl)methanesulfonamide], 0.001 to 0.1 µM. Turning to `CC(C)NCCOc1ncc(-c2cc3c(cc2F)ncc2c3[C@]3(C[C@H](n4cccn4)C3)C(=O)N2C)cc1NS(C)(=O)=O` [Example 476, cis-N-(5-(7′-Fluoro-3′-methyl-2′-oxo-3-(1H-pyrazol-1-yl)-2′,3′-dihydrospiro[cyclobutane-1,1′-pyrrolo[2,3-c]quinolin]-8′-yl)-2-(2-(isopropylamino)ethoxy)pyridin-3-yl)methanesulfonamide], the half-inhibitory concentration (IC50) is > 0.1 µM.

For the compound `CC(C)NCCOc1ncc(-c2cc3c4c(cnc3cc2F)N(C)C(=O)C42CN([C@H]3CC[C@@H](O)CC3)C2)cc1NS(C)(=O)=O` [Example 504, N-(5-(7′-Fluoro-1-(cis-4-hydroxycyclohexyl)-3′-methyl-2′-oxo-2′,3′-dihydrospiro[azetidine-3,1′-pyrrolo[2,3-c]quinolin]-8′-yl)-2-(2-(isopropylamino)ethoxy)pyridin-3-yl)methanesulfonamide], the half-inhibitory concentration (IC50) was > 0.1 µM.

`CN(C)CCCN(C)c1ncc(-c2ccc3ncc4c(c3c2)C2(CCC2)C(=O)N4C)cc1NS(C)(=O)=O` [Example 362, N-(2-((3-(Dimethylamino)propyl)(methyl)amino)-5-(3′-methyl-2′-oxo-2′,3′-dihydrospiro[cyclobutane-1,1′-pyrrolo[2,3-c]quinolin]-8′-yl)pyridin-3-yl)methanesulfonamide hydrochloride] registered a half-inhibitory concentration (IC50) of 0.001 to 0.1 µM. Still for that read-out and setting: in the case of `CCO[C@H]1C[C@@]2(C1)C(=O)N(C)c1cnc3cc(F)c(-c4cnc(OCCNC(C)C)c(NS(C)(=O)=O)c4)cc3c12` [Example 394, trans-N-(5-(3-Ethoxy-7′-fluoro-3′-methyl-2′-oxo-2′,3′-dihydrospiro[cyclobutane-1,1′-pyrrolo[2,3-c]quinolin]-8′-yl)-2-(2-(isopropylamino)ethoxy)pyridin-3-yl)methanesulfonamide] it was 0.001 to 0.1 µM; in that of `CN1C(=O)C2(CCC2)c2c1cnc1ccc(-c3cnc(N4CCC(C)(N5CCCCC5)CC4)c(NS(C)(=O)=O)c3)cc21` [Example 354, N-(5-(3′-Methyl-2′-oxo-2′,3′-dihydrospiro[cyclobutane-1,1′-pyrrolo[2,3-c]quinolin]-8′-yl)-2-(4′-methyl-[l,4′-bipiperidin]-1′-yl)pyridin-3-yl)methanesulfonamide], > 0.1 µM; in that of `CN1C(=O)C2(CCC2)c2c1cnc1cc(F)c(-c3cnc(OCCNC4CC4)c(NS(C)(=O)=O)c3)cc21` [Example 376, N-(2-(2-(Cyclopropylamino)ethoxy)-5-(7′-fluoro-3′-methyl-2′-oxo-2′,3′-dihydrospiro[cyclobutane-1,1′-pyrrolo[2,3-c]quinolin]-8′-yl)pyridin-3-yl)methanesulfonamide hydrochloride], 0.001 to 0.1 µM. With `CN1C(=O)C2(CCC2)c2c1cnc1ccc(-c3cnc(N4CCC(C)(N5CCCCC5)C4)c(NS(C)(=O)=O)c3)cc21` (racemic) [Example 353, (rac)-N-(5-(3′-Methyl-2′-oxo-2′,3′-dihydrospiro[cyclobutane-1,1′-pyrrolo[2,3-c]quinolin]-8′-yl)-2-(3-methyl-3-(piperidin-1-yl)pyrrolidin-1-yl)pyridin-3-yl)methanesulfonamide hydrochloride], the IC50 is > 0.1 µM. The same measure, in the same setting: in the case of `CN1C(=O)C2(CN(CC(F)(F)F)C2)c2c1cnc1ccc(-c3cnc(N4CC(N(C)C)C4)c(NS(C)(=O)=O)c3)cc21` [Example 480] it was 0.001 to 0.1 µM; in that of `CCN1C(=O)C2(CCC2)c2c1cnc1ccc(-c3cnc(N4CC(N(C)C)C4)c(NS(=O)(=O)c4ccccc4)c3)cc21` [Example 337, N-(2-(3-(Dimethylamino)azetidin-1-yl)-5-(3′-ethyl-2′-oxo-2′,3′-dihydrospiro[cyclobutane-1,1′-pyrrolo[2,3-c]quinolin]-8′-yl)pyridin-3-yl)benzenesulfonamide], 0.001 to 0.1 µM; in that of `CN(C)CCN(C)c1ncc(-c2cc3c4c(cnc3cc2F)N(C)C(=O)C42CCC2)cc1NS(C)(=O)=O` [Example 363, N-(2-((2-(Dimethylamino)ethyl)(methyl)amino)-5-(7′-fluoro-3′-methyl-2′-oxo-2′,3′-dihydrospiro[cyclobutane-1,1′-pyrrolo[2,3-c]quinolin]-8′-yl)pyridin-3-yl)methanesulfonamide hydrochloride], > 0.1 µM.

As usually defined, the IC50 is the concentration at which inhibition is half-maximal. A higher IC50 goes with weaker potency in that assay.
